Reference: ChEMBL document CHEMBL1137931, “Anti-AIDS agents. Part 58: synthesis and anti-HIV activity of 1-thia-di-O-(-)-camphanoyl-(+)-cis-khellactone (1-thia-DCK) analogues” (Bioorg Med Chem Lett, 2004)

Key:
H9 [1] = experiment: Concentration required to inhibit uninfected H9 cell growth by 50%; assay type: functional, cell-based; settings: Homo sapiens
H9 [2] = experiment: Concentration required to inhibit HIV-1 replication by 50% in acutely infected H9 lymphocytes; NA means not active; assay type: functional, cell-based, Homo sapiens
[3] = Therapeutic index expressed as IC50/EC50; settings: read-out: TI
H9 [4] = experiment: Concentration required to inhibit HIV-1 replication by 50% in acutely infected H9 lymphocytes; assay type: functional, cell-based; settings: Homo sapiens

| EC50 (H9 [2]) | EC50 (H9 [4]) | SMILES | IC50 (H9 [1]) | selectivity ratio [3] |
| --- | --- | --- | --- | --- |
| Not Active | – | Cc1cc(=O)sc2c3c(ccc12)OC(C)(C)[C@H](O)[C@@H]3O | 302 µM | – |
| – | – | Cc1cc(=O)sc2c3c(ccc12)OC[C@H](OC(=O)C12CCC(C)(C(=O)O1)C2(C)C)[C@@H]3OC(=O)C12CCC(C)(C(=O)O1)C2(C)C (stereo not given in full) | 194 µM | 62.3 |
| Not Active | – | Cc1cc(=O)sc2c3c(ccc12)OC(C)(C)C=C3 | 339 µM | – |
| – | – | Cc1cc(=O)sc2c3c(ccc12)OC[C@H](O)[C@@H]3O | 340 µM | 11.1 |
| – | 0.000256 µM | CC1(C)Oc2ccc3ccc(=O)oc3c2[C@@H](OC(=O)C23CCC(C)(C(=O)O2)C3(C)C)[C@H]1OC(=O)C12CCC(C)(C(=O)O1)C2(C)C (stereo not given in full) | – | 137000 |
| – | – | Cc1cc(=O)sc2c3c(ccc12)OCC=C3 | 478 µM | 62.3 |
| – | 120 µM | Cc1cc(=O)sc2c3c(ccc12)OC(C)(C)[C@H](OC(=O)C12CCC(C)(C(=O)O1)C2(C)C)[C@@H]3OC(=O)C12CCC(C)(C(=O)O1)C2(C)C (stereo not given in full) | 169 µM | – |
| – | 0.045 µM | Cc1cn([C@H]2C[C@H](N=[N+]=[N-])[C@@H](CO)O2)c(=O)[nH]c1=O [ZIDOVUDINE] | – | – |
